Inhibition data for 7 compounds are collected here from patent US7109193B2, “Tricyclic diazepines tocolytic oxytocin receptor antagonists” (Wyeth, priority 2001, dated 2006).

This assay has as its target T1, human vasopressin V1a receptor subtype (Homo sapiens, UniProt P37288).
T1 construct: host or cells: CHO cells (pZeoSV vector for the Thibonnier line)
Description: Vasopressin binding in Chinese Hamster Ovary cell membranes expressing human vasopressin V1a subtype receptors. The following applies: 100 nM, CHO cell membranes, [3H]Manning ligand, values without parentheses. The method in brief:
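Displacement of [3H]Manning ligand (8 nM working solution) from human V1a receptors in CHO cell membranes, 25–50 μg protein per well. Incubation ran 60 min at room temperature in 50 mM Tris-HCl pH 7.4 with protease inhibitors, followed by filtration and scintillation counting. Results are given as IC50 or percent inhibition.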

T1 sequence (P37288 whole entry): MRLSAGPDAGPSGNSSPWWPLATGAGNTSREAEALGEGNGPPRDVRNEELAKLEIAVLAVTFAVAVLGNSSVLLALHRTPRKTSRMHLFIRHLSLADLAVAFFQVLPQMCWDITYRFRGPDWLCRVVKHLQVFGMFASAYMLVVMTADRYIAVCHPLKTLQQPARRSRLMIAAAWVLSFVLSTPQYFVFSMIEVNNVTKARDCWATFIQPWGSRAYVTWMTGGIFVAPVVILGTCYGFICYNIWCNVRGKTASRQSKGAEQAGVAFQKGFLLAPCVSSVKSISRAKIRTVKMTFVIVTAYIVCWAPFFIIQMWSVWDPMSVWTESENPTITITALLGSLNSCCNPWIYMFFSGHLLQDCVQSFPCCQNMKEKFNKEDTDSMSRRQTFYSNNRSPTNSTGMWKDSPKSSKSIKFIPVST

As for `C=CCN1CCN(C(=O)c2ccc3n2Cc2ccccc2N(C(=O)c2ccc(-c4cccc(OC)c4)c(OC)c2)C3)CC1` [Example 228, (4-Allyl-1-piperazinyl){10-[(2,3′-dimethoxy[1,1′-biphenyl]-4-yl)carbonyl]-10,11-dihydro-5H -pyrrolo[2,1-c][1,4]benzodiazepin-3-yl}methanone], the inhibition at 0.1 µM came to 22%.

Take `C=CCN1CCN(C(=O)c2ccc3n2Cc2ccccc2N(C(=O)c2ccc(-c4cccc(OC)c4)c(C)c2)C3)CC1` [Example 223, (4-Allyl-1-piperazinyl){10-[(3′-methoxy-2-methyl[1,1′-biphenyl]-4-yl)carbonyl]-10,11-dihydro-5H-pyrrolo[2,1-c][1,4]benzodiazepin-3-yl}methanone]: the inhibition at 0.1 µM was 12%.

With `Cc1cc(C(=O)N2Cc3ccc(C(=O)NCCC4CCCN4C)n3Cc3ccccc32)ccc1-c1ccccc1C(F)(F)F` (stereo not shown) [Example 174, N-[2-(1-Methyl-2-pyrrolidinyl)ethyl]-10-{[2-methyl-2′-(trifluoromethyl)[1,1′-biphenyl]-4-yl]carbonyl}-10,11-dihydro-5H-pyrrolo[2,1-c][1,4]benzodiazepine-3-carboxamide], the inhibition at 0.1 µM is 8%.

As to `Cc1cc(C(=O)N2Cc3ccc(C(=O)N(C)C4CCN(C)C4)n3Cc3ccccc32)ccc1-c1ccccc1C(F)(F)F` (stereo not shown) [Example 194, N-Methyl-N-(1-methyl-3-pyrrolidinyl)-10-{[2-methyl-2′-(trifluoromethyl)[1,1′-biphenyl]-4-yl]carbonyl}-10,11-dihydro-5H-pyrrolo[2,1-c][1,4]benzodiazepine-3-carboxamide], the inhibition at 0.1 µM amounted to 23%.

Take `COc1cccc(-c2ccc(C(=O)N3Cc4ccc(C(=O)NCCN5CCCCC5)n4Cc4ccccc43)cc2OC)c1` [Example 159, 10-[(2,3′-Dimethoxy[1,1′-biphenyl]-4-yl)carbonyl]-N-[2-(1-piperidinyl)ethyl]-10,11-dihydro-5H-pyrrolo[2,1-c][1,4]benzodiazepine-3-carboxamide]: the inhibition at 0.1 µM is 44%.

On to `C=CCN1CCN(C(=O)c2ccc3n2Cc2ccccc2N(C(=O)c2ccc(-c4ccccc4OC)c(C)c2)C3)CC1` [Example 222, (4-Allyl-1-piperazinyl){10-[(2′-methoxy-2-methyl[1,1′-biphenyl]-4-yl)carbonyl]-10,11-dihydro-5H-pyrrolo[2,1-c][1,4]benzodiazepin-3-yl}methanone], for which the inhibition at 0.1 µM is 15%.

As to `COc1cc(C(=O)N2Cc3ccc(C(=O)N4CCN(C(C)C)CC4)n3Cc3ccccc32)ccc1-c1cccc2ccccc12` [Example 236, (4-Isopropyl-1-piperazinyl){10-[3-methoxy-4-(1-naphthyl)benzoyl]-10,11-dihydro-5H -pyrrolo[2,1-c][1,4]benzodiazepin-3-yl}methanone], the inhibition at 0.1 µM amounted to 6%.

In general, inhibition refers to the drop in the measured response relative to a control, in per cent.
